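Results reflect a 48-hour exposure of cells in 96-well plates to compound at five concentrations. GI50: concentration for 50% inhibition of growth. Definition used: TGI = concentration required for complete inhibition of growth.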
How the values were obtained:
Assay in all cases: DTP human tumour cell line panel, 48 h
A549 NSCLC = test system: A549 NSCLC
HCC-2998 colon = test system: HCC-2998 colon
HCT-15 colon = test system: HCT-15 colon
M14 melanoma = test system: M14 melanoma
MDA-N = test system: MDA-N
MOLT-4 leukemia = test system: MOLT-4 leukemia
OVCAR-4 ovarian = test system: OVCAR-4 ovarian
SK-MEL-5 melanoma = test system: SK-MEL-5 melanoma
A498 renal = test system: A498 renal

With `O=[N+]([O-])c1ccc(-n2nc3ccc4nonc4c3n2)cc1` the TGI (A549 NSCLC) was greater than 100 µM, the TGI (HCC-2998 colon) was greater than 100 µM and the TGI (HCT-15 colon) was greater than 100 µM. For the same molecule, the TGI (M14 melanoma) was greater than 100 µM, the TGI (MDA-N) was greater than 100 µM and the TGI (MOLT-4 leukemia) was greater than 100 µM. The TGI (OVCAR-4 ovarian) was 47 µM and the TGI (SK-MEL-5 melanoma) was greater than 100 µM.
Work on `COC1/C=C/C(C)C(O)CC(O)/C=C/C(C)C(C(C)C(OC)C(C)CCC(=O)C(C)C(C/C=C/N(C)C=O)OC)OC(=O)/C=C/C=C(\C)CC(OC)CC2=CC(=O)O[C@@H](C(C)C(OC)C1)[C@H]2O` (some centres undefined) yielded a TGI (A498 renal) of 0.0164 µM, a TGI (A549 NSCLC) of 0.235 µM and a TGI (HCT-15 colon) of 0.0893 µM. The TGI (M14 melanoma) was less than 0.005 µM, the TGI (MDA-N) was 0.136 µM and the TGI (MOLT-4 leukemia) was 28.2 µM. For the same molecule, the TGI (OVCAR-4 ovarian) was 1.54 µM and the TGI (SK-MEL-5 melanoma) was less than 0.005 µM.
Molecule `O=c1[nH]c(=O)n(COC(CO)CO)cc1-c1ccccc1` has a TGI (A549 NSCLC) greater than 100 µM, a TGI (HCC-2998 colon) greater than 100 µM and a TGI (HCT-15 colon) greater than 100 µM. The TGI (M14 melanoma) was greater than 100 µM, the TGI (MDA-N) was greater than 100 µM and the TGI (MOLT-4 leukemia) was greater than 100 µM. The TGI (OVCAR-4 ovarian) was greater than 100 µM and the TGI (SK-MEL-5 melanoma) was greater than 100 µM.
`COC(=O)[C@]1(c2cc3ccccc3n2S(=O)(=O)c2ccccc2)CC2CN(C(=O)OCc3ccccc3)C1C1OC(C)(C)OC21` (some centres undefined) was tested, and the TGI (A549 NSCLC) was greater than 100 µM, the TGI (HCC-2998 colon) was greater than 100 µM and the TGI (HCT-15 colon) was greater than 100 µM. The TGI (M14 melanoma) was greater than 100 µM, the TGI (MDA-N) was greater than 100 µM and the TGI (MOLT-4 leukemia) was greater than 100 µM. It also gave a TGI (OVCAR-4 ovarian) greater than 100 µM and a TGI (SK-MEL-5 melanoma) greater than 100 µM.
Molecule `CCC1(O)CC(CCN(Cc2ccccc2)C(=O)OCc2ccccc2)C(OCc2ccccc2)C1O` (centres undefined) has a TGI (A549 NSCLC) of 27.1 µM, a TGI (HCC-2998 colon) of 28.9 µM and a TGI (HCT-15 colon) of 31.7 µM. It also gave a TGI (M14 melanoma) of 42.3 µM, a TGI (MDA-N) of 98.8 µM and a TGI (MOLT-4 leukemia) of 7.56 µM. It also gave a TGI (OVCAR-4 ovarian) of 22 µM and a TGI (SK-MEL-5 melanoma) of 30.9 µM.
For `CCCCCC[C@H]([C@H](C)O)n1cnc2c(N)ncnc21`, the TGI (A549 NSCLC) was greater than 100 µM, the TGI (HCC-2998 colon) was greater than 100 µM and the TGI (HCT-15 colon) was greater than 100 µM. It also gave a TGI (M14 melanoma) greater than 100 µM, a TGI (MDA-N) greater than 100 µM and a TGI (MOLT-4 leukemia) greater than 100 µM. It also gave a TGI (OVCAR-4 ovarian) greater than 100 µM and a TGI (SK-MEL-5 melanoma) greater than 100 µM.
Work on `CCOC(=O)NC(=S)N(CC(=O)c1cc(OC)c(OC)c(OC)c1)c1ccc(Cl)cc1` yielded a GI50 (A498 renal) of 90.1 µM, a TGI (A498 renal) greater than 100 µM and a GI50 (A549 NSCLC) of 59.6 µM. It also gave a TGI (A549 NSCLC) greater than 100 µM, a GI50 (HCC-2998 colon) of 33.4 µM and a TGI (HCC-2998 colon) greater than 100 µM. The GI50 (HCT-15 colon) was 62.6 µM, the TGI (HCT-15 colon) was greater than 100 µM and the GI50 (M14 melanoma) was 36.7 µM. The TGI (M14 melanoma) was greater than 100 µM, the GI50 (MOLT-4 leukemia) was 52.3 µM and the TGI (MOLT-4 leukemia) was greater than 100 µM. It also gave a GI50 (OVCAR-4 ovarian) of 60.6 µM, a TGI (OVCAR-4 ovarian) greater than 100 µM and a GI50 (SK-MEL-5 melanoma) of 43 µM. It also gave a TGI (SK-MEL-5 melanoma) greater than 100 µM.
Work on `CCN1CC2(C)CCC(OC)C34C5CC6CCC(O)(C5C(=O)O6)C(C(O)C23)C14` (centres undefined) yielded a TGI (A498 renal) greater than 100 µM, a TGI (A549 NSCLC) greater than 100 µM and a TGI (HCT-15 colon) greater than 100 µM. The TGI (M14 melanoma) was greater than 100 µM, the TGI (MDA-N) was greater than 100 µM and the TGI (MOLT-4 leukemia) was greater than 100 µM. The TGI (OVCAR-4 ovarian) was greater than 100 µM and the TGI (SK-MEL-5 melanoma) was greater than 100 µM.
Molecule `CC(O)c1nc(C#N)c(N)o1` (centres undefined) has a TGI (A498 renal) greater than 100 µM, a TGI (A549 NSCLC) greater than 100 µM and a TGI (M14 melanoma) greater than 100 µM. For the same molecule, the TGI (MDA-N) was greater than 100 µM, the TGI (MOLT-4 leukemia) was greater than 100 µM and the TGI (SK-MEL-5 melanoma) was greater than 100 µM.
For `O=C(O)C(Cc1ccccc1)NCc1c(O)ccc2c(-c3ccccc3)cc(=O)oc12` (centres undefined), the TGI (A549 NSCLC) was greater than 100 µM, the TGI (HCC-2998 colon) was greater than 100 µM and the TGI (HCT-15 colon) was greater than 100 µM. It also gave a TGI (M14 melanoma) greater than 100 µM, a TGI (MDA-N) greater than 100 µM and a TGI (MOLT-4 leukemia) greater than 100 µM. It also gave a TGI (OVCAR-4 ovarian) greater than 100 µM and a TGI (SK-MEL-5 melanoma) greater than 100 µM.
Work on `O=C1c2cc3c(cc2-c2c1c1cc(F)c(F)cc1c(=O)n2CCCn1ccnc1)OCO3` yielded a GI50 (A498 renal) of 0.0233 µM, a TGI (A498 renal) of 0.116 µM and a GI50 (A549 NSCLC) of 0.018 µM. The TGI (A549 NSCLC) was 1.32 µM, the GI50 (HCC-2998 colon) was 0.195 µM and the TGI (HCC-2998 colon) was greater than 100 µM. For the same molecule, the GI50 (HCT-15 colon) was 0.117 µM, the TGI (HCT-15 colon) was greater than 100 µM and the GI50 (M14 melanoma) was 0.0101 µM. The TGI (M14 melanoma) was greater than 100 µM, the GI50 (MOLT-4 leukemia) was less than 0.01 µM and the TGI (MOLT-4 leukemia) was 1.24 µM. For the same molecule, the GI50 (OVCAR-4 ovarian) was 0.27 µM, the TGI (OVCAR-4 ovarian) was greater than 100 µM and the GI50 (SK-MEL-5 melanoma) was 0.02 µM. The TGI (SK-MEL-5 melanoma) was 0.0852 µM.
Molecule `O=C(CNc1ccccc1C(=O)O)Nn1cnc2ccc(S(=O)(=O)Nc3ccccc3C(=O)O)cc2c1=O` has a TGI (A549 NSCLC) greater than 100 µM, a TGI (HCC-2998 colon) greater than 100 µM and a TGI (HCT-15 colon) greater than 100 µM. It also gave a TGI (M14 melanoma) greater than 100 µM, a TGI (MDA-N) greater than 100 µM and a TGI (MOLT-4 leukemia) greater than 100 µM. The TGI (OVCAR-4 ovarian) was greater than 100 µM.
With `C/C(=C1\N=C(c2ccccc2)OC1=O)c1ccccc1` the TGI (A498 renal) was greater than 100 µM, the TGI (A549 NSCLC) was greater than 100 µM and the TGI (HCC-2998 colon) was greater than 100 µM. It also gave a TGI (HCT-15 colon) greater than 100 µM, a TGI (M14 melanoma) greater than 100 µM and a TGI (MOLT-4 leukemia) greater than 100 µM. For the same molecule, the TGI (OVCAR-4 ovarian) was greater than 100 µM and the TGI (SK-MEL-5 melanoma) was greater than 100 µM.
Work on `C=C1c2nc3ccccc3n2C=C(c2ccc(C)cc2)N1c1ccc(OC)cc1` yielded a TGI (A498 renal) greater than 100 µM, a TGI (A549 NSCLC) greater than 100 µM and a TGI (HCC-2998 colon) greater than 100 µM. For the same molecule, the TGI (HCT-15 colon) was greater than 100 µM, the TGI (M14 melanoma) was greater than 100 µM and the TGI (MOLT-4 leukemia) was greater than 100 µM. For the same molecule, the TGI (OVCAR-4 ovarian) was greater than 100 µM and the TGI (SK-MEL-5 melanoma) was greater than 100 µM.
Work on `C[C@H]1S[C@@H](c2ccc(Cl)cc2Cl)N(NC(=O)c2ccncc2)C1=O` yielded a TGI (A498 renal) greater than 100 µM, a TGI (HCT-15 colon) greater than 100 µM and a TGI (M14 melanoma) greater than 100 µM. It also gave a TGI (MOLT-4 leukemia) greater than 100 µM, a TGI (OVCAR-4 ovarian) greater than 100 µM and a TGI (SK-MEL-5 melanoma) greater than 100 µM.
`CCOP(=O)(/C=C/n1cc(C)c(=O)[nH]c1=O)OCC` gave a TGI (A498 renal) greater than 100 µM, a TGI (A549 NSCLC) greater than 100 µM and a TGI (HCT-15 colon) greater than 100 µM. The TGI (M14 melanoma) was greater than 100 µM, the TGI (MDA-N) was greater than 100 µM and the TGI (MOLT-4 leukemia) was greater than 100 µM. It also gave a TGI (OVCAR-4 ovarian) greater than 100 µM and a TGI (SK-MEL-5 melanoma) greater than 100 µM.

— PubChem BioAssay (NCI)
